Data taken from ChEMBL document CHEMBL1201862, “PubChem BioAssay data set” (2004).
Active and inactive are the calls of the source.

Key:
[1] = Counterscreen for IDE inhibitors: Luminescence-based cell-based high throughput dose response assay to identify compounds that are cytotoxic to HEK cells. [Related pubchem assays: 434962 (Primary screen (IDE inhibitors in singlicate)), 449730 (Counterscreen (Cytotoxicity in triplicate)), 435028 (Confirmation (IDE inhibitors in triplicate)) …; assay type: functional; details: HEK293
[2] = viability loss in HeLa cells – cytotoxicity control for MgcRacGAP inhibitor project, dose response (AID 624300); assay type: functional
[3] = target: Insulin-degrading enzyme (Homo sapiens, UniProt P14735); experiment: Dose Response: Fluorescence polarization-based cell-based high throughput dose response assay for inhibitors of insulin-degrading enzyme (IDE). [Related pubchem assays: 434962 (Primary screen (IDE inhibitors in singlicate)), 449730 (Counterscreen (Cytotoxicity in triplicate)), 435028 (Confirmation (IDE inhibitors in triplicate)), 434984 (Summary …; assay type: functional
Sequence of Insulin-degrading enzyme (P14735 whole entry): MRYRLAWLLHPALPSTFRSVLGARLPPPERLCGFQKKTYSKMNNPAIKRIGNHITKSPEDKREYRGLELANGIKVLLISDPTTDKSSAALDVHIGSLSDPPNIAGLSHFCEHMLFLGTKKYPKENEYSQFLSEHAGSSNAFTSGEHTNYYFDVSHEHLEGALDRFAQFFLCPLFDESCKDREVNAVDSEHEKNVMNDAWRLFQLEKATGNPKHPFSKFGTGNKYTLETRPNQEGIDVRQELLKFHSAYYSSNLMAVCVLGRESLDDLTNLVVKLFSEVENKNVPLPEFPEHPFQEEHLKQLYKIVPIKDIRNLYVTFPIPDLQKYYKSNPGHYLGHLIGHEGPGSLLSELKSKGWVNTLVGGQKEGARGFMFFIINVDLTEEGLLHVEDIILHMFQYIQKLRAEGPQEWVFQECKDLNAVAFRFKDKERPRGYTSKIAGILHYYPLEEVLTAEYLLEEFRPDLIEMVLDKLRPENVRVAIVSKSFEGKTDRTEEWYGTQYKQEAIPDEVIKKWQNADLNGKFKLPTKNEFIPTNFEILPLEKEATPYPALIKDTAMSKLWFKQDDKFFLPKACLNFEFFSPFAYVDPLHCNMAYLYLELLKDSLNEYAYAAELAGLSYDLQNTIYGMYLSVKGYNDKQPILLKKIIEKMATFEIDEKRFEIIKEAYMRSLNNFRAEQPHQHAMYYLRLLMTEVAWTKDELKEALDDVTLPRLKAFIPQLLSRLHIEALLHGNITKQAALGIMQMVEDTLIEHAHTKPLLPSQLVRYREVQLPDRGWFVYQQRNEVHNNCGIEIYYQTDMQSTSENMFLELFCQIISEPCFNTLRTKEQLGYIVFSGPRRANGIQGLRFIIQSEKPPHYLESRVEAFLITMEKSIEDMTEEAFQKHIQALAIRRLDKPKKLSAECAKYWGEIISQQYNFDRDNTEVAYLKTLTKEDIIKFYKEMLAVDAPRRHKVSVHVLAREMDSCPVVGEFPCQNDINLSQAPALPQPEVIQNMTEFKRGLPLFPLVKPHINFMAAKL

[4] = target: T1, Rac GTPase-activating protein 1 (Homo sapiens, UniProt Q9H0H5); experiment: blockers of MgcRacGAP-driven Rac1 GTP hydrolysis – biochemical, ADP Hunter fluorescence, primary and confirmatory, confirmation (AID 624330); assay type: functional
T1 sequence (Q9H0H5 whole entry): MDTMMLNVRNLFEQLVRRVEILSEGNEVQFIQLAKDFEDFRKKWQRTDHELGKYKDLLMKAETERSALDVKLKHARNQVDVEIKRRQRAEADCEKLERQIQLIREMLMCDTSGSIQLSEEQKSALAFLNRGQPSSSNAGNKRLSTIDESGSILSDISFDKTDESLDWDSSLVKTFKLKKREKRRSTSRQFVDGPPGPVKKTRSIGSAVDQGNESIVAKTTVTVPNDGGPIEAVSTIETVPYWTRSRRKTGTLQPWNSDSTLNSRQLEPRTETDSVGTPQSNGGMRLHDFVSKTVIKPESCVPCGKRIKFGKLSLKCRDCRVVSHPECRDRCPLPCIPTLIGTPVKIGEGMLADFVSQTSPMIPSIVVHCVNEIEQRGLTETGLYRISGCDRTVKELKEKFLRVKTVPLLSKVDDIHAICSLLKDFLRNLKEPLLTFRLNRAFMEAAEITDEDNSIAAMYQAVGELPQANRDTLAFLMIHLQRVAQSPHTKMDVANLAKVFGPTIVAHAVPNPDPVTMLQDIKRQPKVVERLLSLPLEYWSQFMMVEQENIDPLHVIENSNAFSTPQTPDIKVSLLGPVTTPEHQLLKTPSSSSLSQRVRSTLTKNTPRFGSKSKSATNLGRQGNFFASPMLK

[5] = target: Paired box protein Pax-8 (Homo sapiens, UniProt Q06710); experiment: PAX8 transcriptional activity inhibition in RMG-I – RMG-I cells, luciferase, cherry-pick, dose response (AID 687027); assay type: functional, cell-based;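 further: luciferase reporter driven by Pax8 target thyroperoxidase promoter measured by SteadyGlo luminescence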
Sequence of Paired box protein Pax-8 (Q06710 whole entry): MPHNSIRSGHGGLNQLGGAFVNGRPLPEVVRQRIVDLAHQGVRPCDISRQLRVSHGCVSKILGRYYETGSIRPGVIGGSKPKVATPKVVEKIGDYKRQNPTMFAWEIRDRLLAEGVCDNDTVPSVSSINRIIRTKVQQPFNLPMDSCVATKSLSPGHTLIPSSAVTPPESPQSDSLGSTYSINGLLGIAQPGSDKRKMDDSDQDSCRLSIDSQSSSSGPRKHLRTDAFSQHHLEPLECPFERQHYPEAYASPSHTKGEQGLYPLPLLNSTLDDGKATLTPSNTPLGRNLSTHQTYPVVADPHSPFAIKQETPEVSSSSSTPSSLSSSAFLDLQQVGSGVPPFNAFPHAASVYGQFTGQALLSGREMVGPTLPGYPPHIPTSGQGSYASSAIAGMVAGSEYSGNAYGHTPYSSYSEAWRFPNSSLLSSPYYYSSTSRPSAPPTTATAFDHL

[6] = target: T2, Interleukin-8 (Homo sapiens, UniProt P10145); experiment: SAR analysis of GM-Tri-DAP induced IL-8 secretion in MCF-7/NOD1 cells - Set 2. [Related pubchem assays (depositor defined):AID1575, AID1578, AID2333]; assay type: functional, cell-based
T2 sequence (P10145 whole entry): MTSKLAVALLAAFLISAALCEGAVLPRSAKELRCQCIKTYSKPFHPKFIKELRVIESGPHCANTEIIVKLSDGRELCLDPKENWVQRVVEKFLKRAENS

[7] = NIH-3T3 fibroblast cytotoxicity, dose response, cytotoxicity control, cell-based, fluorescence, Alamar Blue, secondary assay (AID 2327); assay type: functional;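 further: NIH-3T3 mouse fibroblasts cultured with fluconazole at 8 µg/mL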
[8] = alpha-synuclein stem-loop luciferase translation blockers – H4 neuroglioma cells, luminescence, confirmation (AID 1988); assay type: functional, cell-based
[9] = luciferase reporter signal suppression in cells – H4 neuroglioma cells, luminescence, dose response (AID 1990); assay type: functional, cell-based
[10] = tested on: INS1; experiment: INS-1E survival protection against cytokine death – cell-based, luminescence, retest, dose response (AID 449756); assay type: functional; details: Rattus norvegicus;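 further: cell death triggered by IL-1 beta plus TNF-alpha plus IFN-gamma mixture; protective hits raise ATP signal compared with cytokine alone wells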
[11] = tested on: Vero; experiment: cells; assay type: functional, cell-based; details: Chlorocebus sabaeus
[12] = target: T2, Interleukin-8; experiment: SAR analysis of Tumor necrosis factor alpha (TNF-alpha) induced IL-8 secretion in MCF-7/NOD1 cells - Set 2. [Related pubchem assays (depositor defined):AID1575, AID2250, AID2260]; assay type: functional, cell-based
[13] = target: T3, Nucleotide-binding oligomerization domain-containing protein 2 (Homo sapiens, UniProt Q9HC29); experiment: inhibition of NOD2-driven NF-kB reporter – cell-based, luminescence, uHTS, HEK293 (AID 1566); assay type: functional
T3 sequence (Q9HC29 whole entry, the tested form may be a part): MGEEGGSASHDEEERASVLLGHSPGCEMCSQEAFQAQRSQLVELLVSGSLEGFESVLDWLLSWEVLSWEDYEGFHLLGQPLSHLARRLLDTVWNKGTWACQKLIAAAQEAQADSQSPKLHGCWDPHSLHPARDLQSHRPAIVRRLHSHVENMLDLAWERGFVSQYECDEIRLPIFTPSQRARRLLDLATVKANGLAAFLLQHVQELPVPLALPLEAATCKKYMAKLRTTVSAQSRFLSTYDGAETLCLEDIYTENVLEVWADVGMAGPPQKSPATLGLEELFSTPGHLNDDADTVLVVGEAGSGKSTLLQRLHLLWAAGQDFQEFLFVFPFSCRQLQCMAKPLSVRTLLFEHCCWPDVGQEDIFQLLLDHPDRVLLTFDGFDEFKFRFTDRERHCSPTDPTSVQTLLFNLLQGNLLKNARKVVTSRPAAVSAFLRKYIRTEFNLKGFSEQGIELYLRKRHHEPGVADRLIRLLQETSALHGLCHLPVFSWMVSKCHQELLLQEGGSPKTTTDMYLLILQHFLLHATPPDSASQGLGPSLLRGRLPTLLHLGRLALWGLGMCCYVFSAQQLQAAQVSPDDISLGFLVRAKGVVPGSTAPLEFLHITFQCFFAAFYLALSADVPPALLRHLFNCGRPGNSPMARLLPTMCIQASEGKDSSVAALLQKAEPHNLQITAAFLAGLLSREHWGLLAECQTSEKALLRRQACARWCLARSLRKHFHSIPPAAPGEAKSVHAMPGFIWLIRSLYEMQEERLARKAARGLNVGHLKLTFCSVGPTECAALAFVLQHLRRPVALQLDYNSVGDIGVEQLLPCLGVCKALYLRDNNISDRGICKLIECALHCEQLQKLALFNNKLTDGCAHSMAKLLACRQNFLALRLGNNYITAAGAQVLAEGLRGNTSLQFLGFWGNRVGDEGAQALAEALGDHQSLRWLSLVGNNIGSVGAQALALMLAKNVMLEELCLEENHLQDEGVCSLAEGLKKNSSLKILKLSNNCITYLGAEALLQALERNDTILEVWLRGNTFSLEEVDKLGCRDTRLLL

[14] = target: T3, Nucleotide-binding oligomerization domain-containing protein 2; experiment: PubChem AID 2334; assay type: functional
[15] = tested on: HEK293; experiment: inhibition of NOD1-driven NF-kB reporter – cell-based, luminescence, uHTS, primary screen (AID 1578); assay type: functional; details: Homo sapiens
[16] = target: T4, Nucleotide-binding oligomerization domain-containing protein 1 (Homo sapiens, UniProt Q9Y239); experiment: blockers of NOD1 pathway activity – revised, SAR follow-up (AID 2333); assay type: functional
T4 sequence (Q9Y239 whole entry): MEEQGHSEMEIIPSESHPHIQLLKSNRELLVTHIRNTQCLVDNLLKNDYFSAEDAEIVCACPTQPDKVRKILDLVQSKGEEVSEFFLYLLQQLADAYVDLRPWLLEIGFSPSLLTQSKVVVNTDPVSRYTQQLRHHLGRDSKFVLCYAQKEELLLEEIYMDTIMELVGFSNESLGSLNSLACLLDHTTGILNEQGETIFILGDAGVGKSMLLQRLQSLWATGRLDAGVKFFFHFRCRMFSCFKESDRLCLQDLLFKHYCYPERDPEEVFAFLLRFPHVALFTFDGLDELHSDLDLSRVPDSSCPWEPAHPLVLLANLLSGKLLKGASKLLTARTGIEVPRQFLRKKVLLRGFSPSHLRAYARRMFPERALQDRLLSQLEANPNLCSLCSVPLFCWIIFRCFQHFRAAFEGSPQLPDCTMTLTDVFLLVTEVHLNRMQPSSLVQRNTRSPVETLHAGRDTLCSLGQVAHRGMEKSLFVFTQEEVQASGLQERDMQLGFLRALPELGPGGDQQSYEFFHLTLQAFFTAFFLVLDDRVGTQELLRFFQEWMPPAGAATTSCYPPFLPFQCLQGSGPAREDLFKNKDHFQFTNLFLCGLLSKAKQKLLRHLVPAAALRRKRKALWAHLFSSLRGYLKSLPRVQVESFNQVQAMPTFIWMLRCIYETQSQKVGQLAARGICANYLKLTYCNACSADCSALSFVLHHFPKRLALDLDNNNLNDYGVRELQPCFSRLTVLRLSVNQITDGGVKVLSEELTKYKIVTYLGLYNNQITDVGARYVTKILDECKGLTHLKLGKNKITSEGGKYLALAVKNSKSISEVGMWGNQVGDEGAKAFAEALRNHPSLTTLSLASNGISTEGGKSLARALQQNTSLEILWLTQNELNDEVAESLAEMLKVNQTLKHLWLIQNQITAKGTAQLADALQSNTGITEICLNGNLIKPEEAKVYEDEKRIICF

[17] = fluconazole-exposed Candida albicans growth modulators – fluorescence, retest, confirmation (AID 2467); assay type: functional, cell-based
[18] = Luminescence Cell-Based Dose Response HTS to Identify Inhibitors of 5'UTR Stem-Loop Driven Prion Protein mRNA Translation in H4 Neuroglioblastoma Cells. [Related pubchem assays: 1827 (Project Summary), 1813 (Primary HTS)]; assay type: functional
[19] = Trypanosoma cruzi growth suppression in host cells – NIH3T3 host cells, beta-gal luminescence, confirmation (AID 2044); assay type: functional, cell-based;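 further: intracellular parasites grown in NIH/3T3 mouse fibroblasts as host cells; luminescent beta-galactosidase reporter signal from transgenic T. cruzi replicating inside host cells; inhibitors lower the luminescence signal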
[20] = Luminescence-based counterscreen assay for KLF5 inhibitors: dose response cell-based high throughput screening assay to identify cytotoxic compounds using the IEC-6 intestinal epithelial cell line. [Related pubchem assays: 1700 (Primary screen.), 1834 (Confirmation screen.), 1858 (Summary AID.), 1905 (Counterscreen.)]; assay type: functional
[21] = tested on: HEK293; experiment: cells; assay type: functional, cell-based; details: Homo sapiens
[22] = tested on: HEK293; experiment: cells; assay type: functional, cell-based; details: Homo sapiens; remark: listed apart in the source
[23] = tested on: HEK293; experiment: NOD2 signaling inhibitors in MDP-stimulated cells, cell-based, uHTS, luminescence (AID 2001); assay type: functional; details: Homo sapiens
[24] = tested on: HEK293; experiment: cells; assay type: functional, cell-based; details: Homo sapiens; remark: listed apart in the source
[25] = NIH3T3 cell viability loss – ATP luminescence, mouse fibroblasts, counter-screen, dose response (AID 2010); assay type: functional, cell-based;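 further: cells exposed to compound for about 90 hours before reading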
[26] = target: Tumor necrosis factor (Homo sapiens, UniProt P01375); experiment: analog potency on TNFa NF-kB signaling – cell-based, revised, SAR follow-up (AID 2337); assay type: functional
Sequence of Tumor necrosis factor (P01375 whole entry): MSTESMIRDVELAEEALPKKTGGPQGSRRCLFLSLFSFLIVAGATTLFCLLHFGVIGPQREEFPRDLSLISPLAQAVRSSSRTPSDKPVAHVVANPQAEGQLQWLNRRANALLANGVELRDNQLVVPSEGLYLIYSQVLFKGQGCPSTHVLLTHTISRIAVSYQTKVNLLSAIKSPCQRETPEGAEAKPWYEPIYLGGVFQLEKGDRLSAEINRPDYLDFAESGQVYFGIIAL

[27] = tested on: HEK293; experiment: cells; details: Homo sapiens
[28] = tested on: Vero; experiment: cells; assay type: functional; details: Chlorocebus sabaeus
[29] = target: Serine/threonine-protein phosphatase PP1-alpha catalytic subunit (Homo sapiens, UniProt P62136); experiment: inhibition of protein phosphatase 1 activity – biochemical, fluorescence, dose response (AID 2403);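 further: phosphatase turnover of OMFP into fluorescent 3-O-methylfluorescein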
Sequence of Serine/threonine-protein phosphatase PP1-alpha catalytic subunit (P62136 whole entry): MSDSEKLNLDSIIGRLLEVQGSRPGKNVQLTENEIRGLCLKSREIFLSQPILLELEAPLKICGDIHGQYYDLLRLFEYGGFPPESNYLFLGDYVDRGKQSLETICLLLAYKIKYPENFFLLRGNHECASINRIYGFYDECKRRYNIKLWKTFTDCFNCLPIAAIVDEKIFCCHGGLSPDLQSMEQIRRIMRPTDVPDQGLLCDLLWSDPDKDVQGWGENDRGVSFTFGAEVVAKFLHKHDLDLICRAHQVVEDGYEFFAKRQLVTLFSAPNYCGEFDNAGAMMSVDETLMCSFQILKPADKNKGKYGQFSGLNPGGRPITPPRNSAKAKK

[30] = target: Serine/threonine-protein phosphatase (Homo sapiens, UniProt Q9BPW0); experiment: Counterscreen for inhibitors of PP1: fluorescence-based biochemical high throughput dose response assay to identify inhibitors of Protein Phosphatase 5 (PP5). [Related pubchem assays: 2034 (Summary (PP5 inhibitors)), 1987 (PP5 inhibitors in singlate), 2235 (PP1 inhibitors in singlate)]
Sequence of Serine/threonine-protein phosphatase (Q9BPW0 whole entry): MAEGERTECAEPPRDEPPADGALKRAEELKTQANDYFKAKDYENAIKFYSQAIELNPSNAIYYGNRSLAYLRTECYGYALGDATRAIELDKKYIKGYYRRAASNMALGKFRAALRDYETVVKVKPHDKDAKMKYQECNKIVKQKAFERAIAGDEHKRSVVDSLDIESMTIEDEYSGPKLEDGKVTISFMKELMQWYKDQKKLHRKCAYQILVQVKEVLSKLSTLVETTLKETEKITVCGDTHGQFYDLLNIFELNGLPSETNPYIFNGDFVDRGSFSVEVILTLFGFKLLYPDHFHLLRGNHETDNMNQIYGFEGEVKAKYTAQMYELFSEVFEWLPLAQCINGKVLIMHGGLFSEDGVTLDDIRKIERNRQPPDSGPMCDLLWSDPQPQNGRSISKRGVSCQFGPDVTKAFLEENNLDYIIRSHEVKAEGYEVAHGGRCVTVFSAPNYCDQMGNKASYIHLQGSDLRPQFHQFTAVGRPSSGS

[31] = target: Nonstructural protein 1 (Influenza A virus, UniProt Q194T2); assay type: functional, Influenza A virus (A/California/07/2009(H1N1))
Sequence of Nonstructural protein 1 (Q194T2 whole entry): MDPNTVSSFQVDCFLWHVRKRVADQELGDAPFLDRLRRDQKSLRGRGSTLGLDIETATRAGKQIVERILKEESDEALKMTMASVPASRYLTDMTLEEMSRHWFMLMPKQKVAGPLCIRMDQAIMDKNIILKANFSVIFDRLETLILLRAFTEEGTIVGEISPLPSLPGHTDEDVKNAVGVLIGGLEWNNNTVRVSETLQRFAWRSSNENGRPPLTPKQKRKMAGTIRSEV

[32] = target: T5, Streptokinase A (Streptococcus pyogenes serotype M1, UniProt P10520); experiment: viability-normalized secreted streptokinase activity reduction – plasminogen activation absorbance, OD405, dose response (AID 1914); assay type: functional, Streptococcus pyogenes M1 GAS;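 further: secreted streptokinase activity via plasminogen activation per viability signal from cell pellet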
T5 sequence (P10520 whole entry): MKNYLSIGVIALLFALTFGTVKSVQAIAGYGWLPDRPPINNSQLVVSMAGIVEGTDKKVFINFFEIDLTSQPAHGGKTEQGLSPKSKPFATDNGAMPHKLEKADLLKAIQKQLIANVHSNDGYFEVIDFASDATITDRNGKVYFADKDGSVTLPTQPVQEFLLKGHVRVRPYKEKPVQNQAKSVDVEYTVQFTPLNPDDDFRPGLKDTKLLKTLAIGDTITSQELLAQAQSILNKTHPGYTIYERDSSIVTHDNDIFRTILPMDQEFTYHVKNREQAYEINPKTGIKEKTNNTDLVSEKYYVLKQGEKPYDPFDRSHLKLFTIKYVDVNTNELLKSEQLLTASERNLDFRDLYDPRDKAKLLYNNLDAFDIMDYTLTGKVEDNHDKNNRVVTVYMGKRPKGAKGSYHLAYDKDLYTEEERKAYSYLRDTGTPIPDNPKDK

[33] = tested on: Streptococcus; experiment: Luminescence Microorganism-Based Dose Response Follow up to Identify Compounds Cytotoxic to Streptococcus. [Related pubchem assays: 1677 (Project Summary), 1915, 1914, 1902 (Retest at Dose), 1900 (Counter Screen), 1662 (Primary HTS)]; assay type: functional, organism-based
[34] = tested on: Streptococcus sp. 'group A'; experiment: Streptococcus pyogenes SK(-)GAS viability under kanamycin – luminescence, BacTiterGlo, confirmation, counter-screen for streptokinase expression inhibitor project, dose response (AID 1900); assay type: functional, organism-based
[35] = tested on: Streptococcus; experiment: GAS UMAA2166 growth inhibition – luminescence, BacTiterGlo, counter-screen for streptokinase expression inhibitor project, dose response (AID 1915); assay type: functional, organism-based;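 further: potency for reduction of bacterial viability or growth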

Cc1cc(/C=C2\SC(=S)NC2=O)cc(C)c1O
IC50 [1]: > 55.7 µM (not active)
CC50 [2]: 100 µM (active)
IC50 [3]: > 56 µM (not active)
IC50 [4]: 25.8 µM (active)

Oc1ccc(N=Nc2ccccc2C(F)(F)F)c2cccnc12
AC50 [5]: 4.15 µM (active)
IC50 [6]: 19.8 µM (active)
EC50 [7]: > 160 µM (inactive)
EC50 [8]: 0.308 µM (active)
EC50 [9]: 1.9 µM (active)
AC50 [10]: 1.17 µM (active)
IC50 [11]: > 25 µM (active)
IC50 [12]: > 25 µM (inactive)
EC50 [13]: > 20 µM (inactive)
IC50 [14]: > 20 µM (inactive)
EC50 [15]: 3.71 µM (active)
IC50 [16]: > 20 µM (inactive)
EC50 [17]: 1.57 µM (active)
EC50 [18]: 1.08 µM (active)
EC50 [19]: 0.633 µM (active)
IC50 [20]: 6.27 µM (active)
IC50 [21]: > 20 µM (inactive)
IC50 [22]: > 20 µM (inactive)
IC50 [23]: 4.21 µM (inactive)
IC50 [24]: > 20 µM (inactive)
EC50 [25]: 6.95 µM (active)
IC50 [26]: 7.03 µM (active)
IC50 [27]: > 20 µM (inactive)
CC50 [28]: 4.62 µM (active)

Cc1ccn2c(Nc3ccc4c(c3)OCO4)c(-c3ccccn3)nc2c1
IC50 [29]: 6.76 µM (active)
IC50 [30]: 37.9 µM (not active)
IC50 [31]: 11.5 µM (active)

Cc1ccc(C(=O)n2c3ccccc3c3ccccc32)cc1
EC50 [32]: 6.45 µM (active)
EC50 [33]: > 500 µM (not active)
EC50 [34]: 21.6 µM (active)
EC50 [35]: > 150 µM (not active)
